The nature of data set [1]: Cytotoxicity against human HFF cells. In kind it is cell-based.
Data set [2] in a line: Selectivity index, ratio of EC50 for Murine cytomegalovirus Smith to CC50 for human HFF cell.
Data set [3] is described as follows: Cytotoxicity against human HSB2 cell after 4 hrs by MTS assay. In kind it is functional. The following applies: CCRF-HSB-2, 4 h.
The nature of data set [4]: Antiviral activity against Epstein-Barr virus p3hr-1 infected in human daudi cells. In kind it is functional, cell-based, Epstein-barr virus strain p3hr-1. The following applies: human gammaherpesvirus 4, Daudi.
Data set [5] concerns Human betaherpesvirus 5. The data set is described as follows: Antiviral activity against Human cytomegalovirus AD169 infected in HFF cells by plaque reduction assay. Particulars: Human betaherpesvirus 5, AD169, HFF. It counts as functional, organism-based. (Plaques are areas of infected cells; plaque reduction assays count them against a control.)
The nature of data set [6]: Selectivity index, ratio of EC50 for Human herpesvirus 6B Z29 to CC50 for human MOLT-3 cells.
The test system of data set [7] is MOLT-3. The data set is described as follows: Cytotoxicity against human MOLT3 cell after 4 hrs by MTS assay. In kind it is functional. The following applies: MOLT-3, 4 h.
A short description of data set [8]: Antiviral activity against Human herpesvirus 6A GS infected in human HSB-2 cells. It counts as functional, cell-based. Particulars: Human betaherpesvirus 6A, HSB2.
Data set [9] can be described thus: Antiviral activity against Human herpesvirus 6B Z29 infected in human MOLT-3 cells. In kind it is functional, cell-based. The following applies: Human betaherpesvirus 6B, Z29, MOLT-3.
Data set [10] in a line: Antiviral activity against Murine cytomegalovirus Smith infected in HFF cells by plaque reduction assay. It counts as functional, cell-based, Murine cytomegalovirus (strain Smith). Particulars: Murid betaherpesvirus 1, HFF.
Data set [11] in a line: Selectivity index, ratio of EC50 for Epstein-Barr virus P3HR-1 to CC50 for human daudi cell.
Data set [12] relates to Daudi. In words: Cytotoxicity against human Daudi cell after 4 hrs by MTS assay. It counts as functional. (Formazan colour is commonly taken as a measure of viable cells.)
Data set [13] concerns Human alphaherpesvirus 1. In words: Antiviral activity against herpes simplex virus 1 E-377 infected in HFF cells by plaque reduction assay. It counts as functional, organism-based. Particulars: Human alphaherpesvirus 1, E-377, HFF.
Data set [14] can be described thus: Selectivity index, ratio of EC50 for herpes simplex virus type 2 MS to CC50 for human HFF cell.
Data set [15] in a line: Cytotoxicity against human HFF cells after 7 days by neutral red dye method. In kind it is cell-based.
Data set [16] relates to Human alphaherpesvirus 2. In words: Antiviral activity against herpes simplex virus 2 MS infected in HFF cells by plaque reduction assay. In kind it is functional, organism-based. The following applies: Human alphaherpesvirus 2, MS.
Data set [17] is described as follows: Selectivity index, ratio of EC50 for herpes simplex virus type 1 E-377 to CC50 for human HFF cell.
Data set [18] has as its system Human alphaherpesvirus 3. In words: Antiviral activity against Varicella zoster virus Ellen infected in HFF cells by plaque reduction assay. In kind it is functional, organism-based. Particulars: Human alphaherpesvirus 3, Ellen.

By CC50 is commonly meant the concentration at which the toxic effect on the cells reaches its halfway point. A low value points to greater toxicity to the cells. Usually EC50 stands for the concentration giving half of the maximal effect. A low value points to an effect from little substance. What is called IC50 is the point on the concentration scale where inhibition reaches its midpoint. A low value points to greater potency.

Regarding `Nc1nc(=O)n(CCOCP(=O)(O)O)cc1F`, the CC50 in data set [1] was 220 µM; in [3] it was above 41 µM; in data set [7] it was above 50 µM. Besides, the “Selectivity Index” value turned out to be 2.8 in [2] and 1 in [6]. Also, the 50% effective concentration (EC50) in [4] was above 50 µM; in data set [5], above 20 µM; in [8], above 50 µM; in data set [9], above 50 µM; in data set [10], 78 µM.

Turning to `CCCCCCCCCCCCCCCCOCCCOP(=O)(O)COCCn1ccc(N)nc1=O`, the “Selectivity Index” value in data set [11] is given as below 2; in data set [2] it was below 150; in data set [14], above 9; in data set [6], 1; in [17], above 1.1. Also, the CC50 is 200 µM in data set [1], above 100 µM in data set [12], above 50 µM in data set [3] and above 50 µM in [7]. The EC50 in [13] is 260 µM; in data set [4] it was above 50 µM; in data set [5], above 20 µM; in data set [16] it was 35 µM; in data set [8], above 50 µM; in [9], above 50 µM. Moreover, the figures for the EC50 in data set [18] and in [10] were above 300 µM and above 20 µM, respectively. In data set [15], this compound came in with a CC50 at 168 h above 300 µM.

For the compound `CCCCCCCCCCCCCCCCOCCCOP(=O)(O)COCCn1cc(Br)c(N)nc1=O`, the “Selectivity Index” value was above 3400 in data set [11]; above 230 in [2]; above 17 in data set [14]; 1 in [6]; above 250 in data set [17]. In addition, the CC50 was 35 µM in data set [1], above 100 µM in data set [12], above 41 µM in [3] and above 50 µM in data set [7]. Moreover, the EC50 in data set [13] is 1.2 µM; in [4], 0.03 µM; in data set [5] it was 4.8 µM; in data set [16] it was 18 µM; in data set [8], 38 µM; in [9] it was above 45 µM. For the same compound, the EC50 was determined as 42 µM in data set [18] and 1.3 µM in data set [10]. Besides, the CC50 at 168 h in data set [15] is above 300 µM.

`CCCCCCCCCCCCCCCCOCCCOP(=O)(O)COCCn1cc(F)c(N)nc1=O`: the “Selectivity Index” value in data set [11] is listed as above 77; in data set [2] it was 440; in data set [14] it was below 3; in data set [6], above 1; in [17], below 3. In addition, the CC50 in data set [1] is 33 µM; in [12], above 100 µM; in data set [3], 22.6 µM; in data set [7], above 50 µM. Moreover, the EC50 in data set [13] was above 12 µM; in data set [4], 1.3 µM; in [5], 2 µM; in [16] it was above 12 µM; in [8] it was 7.2 µM; in [9], 37 µM. Moreover, the 50% effective concentration (EC50) in [18] was 2.6 µM; in [10], 0.08 µM. This compound yielded a cytotoxic concentration (CC50) at 168 h in data set [15] of 35 µM.

For `Nc1nc(NC2CC2)c2ncn(CCOCP(=O)(O)O)c2n1`, the “Selectivity Index” value in data set [11] is given as 200; in [2] it was above 1700; in data set [14], above 13; in data set [6] it was 1; in data set [17], above 25. The CC50 in [1] was found to be 150 µM; in data set [12], 20 µM; in data set [3], 3 µM; in data set [7] it was 8.5 µM. Further, the EC50 was found to be 4 µM in data set [13]; 0.1 µM in [4]; 0.4 µM in [5]; 7.9 µM in data set [16]; 1 µM in data set [8]; 6.4 µM in data set [9]. Besides, the EC50 in [18] is 0.8 µM; in [10], below 0.06 µM. The CC50 at 168 h in [15] is above 100 µM.

As to `Nc1ccn(CCOCP(=O)(O)O)c(=O)n1`, the “Selectivity Index” value is below 2.4 in data set [11]; above 480 in data set [2]; 1 in data set [14]; 1 in data set [6]; 1 in [17]. Besides, the cytotoxic concentration (CC50) was 220 µM in data set [1], above 100 µM in data set [12], above 50 µM in [3] and above 50 µM in [7]. The half-maximal effective concentration (EC50) in data set [13] was above 300 µM; in data set [4], above 41 µM; in data set [5], above 20 µM; in data set [16], above 300 µM; in data set [9], above 50 µM; in [18], above 300 µM. The compound further came in with an EC50 in data set [10] of 63 µM. In data set [15], this compound yielded a CC50 at 168 h above 300 µM. Besides, in data set [8], the IC50 was above 50 µM.

As for `CCCCCCCCCCCCCCCCOCCCOP(=O)(O)COCCn1cnc2c(N)nc(N)nc21`, the “Selectivity Index” value was above 63 in data set [11]; 240 in data set [2]; 300 in data set [14]; 1 in [6]; 200 in data set [17]. In addition, the cytotoxic concentration (CC50) is 170 µM in [1], above 50 µM in [12], 6.4 µM in data set [3] and 51 µM in data set [7]. In addition, the EC50 came out at 0.6 µM in [13]; 0.8 µM in data set [4]; 0.5 µM in data set [5]; 0.4 µM in data set [16]; 2 µM in [8]; 34 µM in data set [9]. Besides, the EC50 in data set [18] stood at 0.3 µM; in data set [10] it was 0.5 µM. For the same compound, half-maximal cytotoxicity in [15] (CC50 at 168 h) was put at 120 µM.

As to `CCCCCCCCCCCCCCCCOCCCOP(=O)(O)COCCn1cnc2c(NC3CC3)nc(N)nc21`, the “Selectivity Index” value in data set [11] is above 71000; in [2], above 3700; in [14], 550; in [6], 6; in [17], 1100. Further, the CC50 was 26 µM in data set [1], above 50 µM in [12], 0.05 µM in data set [3] and 0.3 µM in [7]. Further, the EC50 in data set [13] came to 0.1 µM; in data set [4] it was 0.0007 µM; in data set [5] it was 0.02 µM; in [16] it was 0.2 µM; in data set [8], 0.05 µM; in [9] it was 0.05 µM. Moreover, the values for the EC50 in data set [18] and in data set [10] were 0.03 µM and below 0.03 µM, respectively. Besides, the 50% cytotoxic concentration (CC50) at 168 h in data set [15] is 110 µM.

`Nc1nc(=O)n(CCOCP(=O)(O)O)cc1Br`: the “Selectivity Index” value in data set [11] is on record as 1.1; in data set [2], below 150; in data set [14], above 5; in data set [6], below 2; in data set [17] it was above 5. Further, the CC50 was 200 µM in data set [1], 27 µM in [12], 3.9 µM in [3] and 84 µM in data set [7]. The EC50 is above 60 µM in data set [13]; 24 µM in [4]; above 20 µM in data set [5]; above 60 µM in data set [16]; above 50 µM in [8]; above 47 µM in [9]. Moreover, the half-maximal effective concentration (EC50) in data set [18] is 38 µM; in [10] it was above 20 µM. Further, the CC50 at 168 h in data set [15] is above 300 µM.

Regarding `Nc1nc(N)c2ncn(CCOCP(=O)(O)O)c2n1` [PMEDAP], the “Selectivity Index” value in data set [11] was above 42; in [2] it was above 500; in data set [14], above 10; in data set [6] it was 1; in data set [17] it was above 10. For the same compound, the CC50 is 170 µM in data set [1], above 50 µM in [12], above 56 µM in [3] and 39 µM in data set [7]. Further, the EC50 was above 10 µM in data set [13]; 1.2 µM in [4]; 13 µM in [5]; above 10 µM in [16]; 15 µM in [8]; 28 µM in [9]. The results for the EC50 in data set [18] and in [10] were 2.9 µM and 0.2 µM, respectively. Further, in data set [15], the CC50 at 168 h is above 100 µM.

These data come from ChEMBL document CHEMBL1275573, “Inhibition of herpesvirus replication by hexadecyloxypropyl esters of purine- and pyrimidine-based phosphonomethoxyethyl nucleoside phosphonates” (Antimicrob Agents Chemother, 2008).
